In data set [1] the test system is obese mice under high-fat diet. The data set can be described thus: Adiposity by dual X-ray absorptiometry (DXA) in treated obese mice. Format: in vivo. The conditions noted are these: 2 weeks treatment. As for the experimental part: Mice treated as in FIG. 22 were subjected to dual X-ray absorptiometry (DXA) to determine their relative content of fat and lean tissues (the head and the bone mass is not measured). Determinations were performed one week before starting the treatment (day −7 or D−7), in the middle of the 2 weeks treatment (day 7 or D7, and at the end of the treatment (day 14 or D14). The content of fat is expressed as the percentage of fat relative to the combined fat and lean mass (upper panel). The absolute lean mass is also shown (lower panel). The two panels include data from the assay shown in FIG. 22, as well as the data from our previous assay with Compound A at 15 mg/kg. The percentage of fat and the lean mass of non-obese littermates (always fed with standard diet, SD) is shown in orange for reference.
(§1) Mice were fed either with a standard chow diet (Harlan Teklad 2018, 18% calories from fat) or, when indicated, with a high fat diet (Research Diets D12451, 45% of total calories from fat). To measure food intake, mice were housed in metabolic cages during 5 days, and food and water intake, as well as, the output of faeces and urine were measured during the last 4 days. Body composition (fat and lean content) was determined by Dual energy X-ray Absorptiometry (DXA) (Lunar PIXImus Densitometer, GE Medical Systems). […]

Data set [2] has as its system SCID mice bearing human NSCLC A549 lung tumors. The data set can be described thus: Body weight of SCID mice bearing A549 lung tumor xenografts. In kind it is in vivo. The conditions noted are these: 22 mg/kg orally, 9 doses, SCID mice with A549 xenografts. As for the experimental part: FIG. 41. Body weight evolution of SCID mice bearing human NSCLC A549 lung tumors when treated with Compound A orally, 9 doses of 22 mg/Kg during day 15th and 30th, versus compounds treated with vehicle.
In “normal conditions” no body weight loss is observed.

The next data set addresses PI3K isoform p110δ (Homo sapiens, UniProt O00329). The data set can be described thus: Inhibition of PI3K isoform p110δ. Format: biochemical.
The subject of data set [3] is obese mice under high-fat diet. Description: Body weight and food intake of obese mice under high-fat diet. Format: in vivo. The conditions noted are these: 10 mg/kg, ad libitum high-fat food. As for the experimental part:
Obese mice under long-term high-fat (HFD) were dosed with Compound A or with the indicated PI3KI by gavage once per day, during 2 weeks, resting the intervening week-end, and always with ad libitum access to HFD. During the two weeks of treatment, it was scored the amount of food intake (upper left panel) and the change in body weight relative to the initiation of the treatment (upper right panel). The final relative change in body weight is also represented (lower panel). The weight of non-obese littermates (always fed with standard diet, SD) is marked for reference.
as §1, with “Systems). Image acquisition lasted 5 minutes with mice under anesthesia by inhalation of 2% isofluorane in 100% oxygen. The analysis of lean mass and fat mass was performed using a Region Of Interest (ROI) comprising the entire body.” for “Systems).”

Data set [4] deals with Preadipocytes 3T3-L1 ectopically expressing C/Ebpβ differentiated into brown adipocytes. The data set can be described thus: 3T3-L1/C/Ebpβ differentiated brown adipocytes treated with PI3Ki. The conditions noted are these: 1 μM, 4 h. Format: cell-based. The protocol:
Mouse Embryonic Fibroblasts (MEFs) were isolated at E13.5 as previously described^42. For insulin stimulation, primary MEFs were serum starved (0% FBS) for 12 h, followed by 60 min incubation with PBS and then stimulated with 1 μg/ml of insulin (Sigma) during 30 min. For oncogenic transformation, primary MEFs were retrovirally transduced with pLXSN-neo-E6 and either pWZL-blast-middle-T (kindly provided by Jean Zhao, Dana-Farber Cancer Institute, Boston) or pBABE-puro-EGFRL858R (kindly provided by William Sellers and Matthew Meyerson, Addgene plasmid #11012)^43. After the corresponding drug selection 20,000 cells were plated in 10 cm diameter plates, and 2 weeks later were fixed and stained with 20% Giemsa. Immortalized brown adipocyte cell lines were obtained from the interscapular BAT of 3-5 day-old neonates, treated with and cultured as previously described^33. For immortalization, cultures were retrovirally transduced with Large-T antigen (in vector pBABE-puro, kindly provided by James de Caprio, Dana Farber Cancer Institute, Boston). For the reprogramming of 3T3-L1 adipocytes into brownadipocytes, we followed the method previously reported^50. Briefly, 3T3-L1 cells were retrovirally transduced with pBABE-puro-Cebpb (kindly provided by Roger R. Gomis, IRB, Barcelona). After drug selection with puromycin, cells were grown to confluence and subsequently cultured for 48 h with “differentiation medium” (DMEM 10% FBS, 20 nM insulin, 1 nM T3, 1 μM rosiglitazone, 0.5 mM isobutylmethylxanthine, 125 nM indomethacin, 5 μM dexamethasone). After this, cells were exposed to “maintenance medium” (DMEM 10% FBS, 20 nM insulin, 1 nM T3) for 4 days. […]
Total RNA from tissues or fibroblasts was extracted using TRIZOL (Invitrogen). Reverse transcription was performed using random primers and Ready-To-Go™ You-Prime First-Strand Beads (GE Healthcare). Quantitative real time-PCR was performed using DNA Master Sybr Green I mix (Applied Biosystems) in an ABI PRISM 7700 thermocycler (Applied Biosystem). […]

For data set [5], the system named is 282 additional kinases including mTOR and DNAPK. The data set can be described thus: Inhibition of additional kinases (panel). Format: biochemical.
In the next data set the target is PI3K isoform p1103 (Homo sapiens, UniProt P42338). Description: Inhibition of PI3K isoform p110β. In kind it is biochemical.
Chain of PI3K isoform p1103 (P42338 whole entry, canonical isoform): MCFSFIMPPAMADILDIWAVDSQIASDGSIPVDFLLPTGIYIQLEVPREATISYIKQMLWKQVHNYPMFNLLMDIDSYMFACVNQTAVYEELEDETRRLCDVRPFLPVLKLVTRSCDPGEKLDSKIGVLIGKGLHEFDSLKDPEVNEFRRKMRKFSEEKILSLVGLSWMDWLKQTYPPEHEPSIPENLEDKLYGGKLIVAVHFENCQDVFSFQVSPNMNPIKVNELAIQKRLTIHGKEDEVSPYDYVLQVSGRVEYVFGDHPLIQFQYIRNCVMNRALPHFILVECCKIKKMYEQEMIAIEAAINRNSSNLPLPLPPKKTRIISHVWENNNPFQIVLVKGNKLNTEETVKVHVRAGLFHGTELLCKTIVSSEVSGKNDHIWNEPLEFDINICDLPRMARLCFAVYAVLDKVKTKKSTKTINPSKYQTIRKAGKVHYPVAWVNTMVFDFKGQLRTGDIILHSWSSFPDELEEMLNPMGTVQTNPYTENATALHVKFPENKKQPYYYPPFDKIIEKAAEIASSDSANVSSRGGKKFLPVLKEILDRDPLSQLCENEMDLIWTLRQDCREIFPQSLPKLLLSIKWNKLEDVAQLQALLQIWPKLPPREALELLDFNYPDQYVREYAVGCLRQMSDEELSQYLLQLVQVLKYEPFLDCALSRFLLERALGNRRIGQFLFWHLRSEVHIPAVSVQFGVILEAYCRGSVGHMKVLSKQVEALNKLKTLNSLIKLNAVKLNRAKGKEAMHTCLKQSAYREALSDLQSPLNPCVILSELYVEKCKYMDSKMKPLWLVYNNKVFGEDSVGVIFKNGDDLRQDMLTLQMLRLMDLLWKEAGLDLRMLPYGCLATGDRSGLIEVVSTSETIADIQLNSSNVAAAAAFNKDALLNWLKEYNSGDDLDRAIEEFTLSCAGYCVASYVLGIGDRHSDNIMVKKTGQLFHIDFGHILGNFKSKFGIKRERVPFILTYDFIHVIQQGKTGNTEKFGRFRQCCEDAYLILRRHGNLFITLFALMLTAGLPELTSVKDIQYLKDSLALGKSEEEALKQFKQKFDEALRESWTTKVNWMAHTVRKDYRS
Chain of PI3K isoform p1103 (P27986 whole entry partner, canonical isoform): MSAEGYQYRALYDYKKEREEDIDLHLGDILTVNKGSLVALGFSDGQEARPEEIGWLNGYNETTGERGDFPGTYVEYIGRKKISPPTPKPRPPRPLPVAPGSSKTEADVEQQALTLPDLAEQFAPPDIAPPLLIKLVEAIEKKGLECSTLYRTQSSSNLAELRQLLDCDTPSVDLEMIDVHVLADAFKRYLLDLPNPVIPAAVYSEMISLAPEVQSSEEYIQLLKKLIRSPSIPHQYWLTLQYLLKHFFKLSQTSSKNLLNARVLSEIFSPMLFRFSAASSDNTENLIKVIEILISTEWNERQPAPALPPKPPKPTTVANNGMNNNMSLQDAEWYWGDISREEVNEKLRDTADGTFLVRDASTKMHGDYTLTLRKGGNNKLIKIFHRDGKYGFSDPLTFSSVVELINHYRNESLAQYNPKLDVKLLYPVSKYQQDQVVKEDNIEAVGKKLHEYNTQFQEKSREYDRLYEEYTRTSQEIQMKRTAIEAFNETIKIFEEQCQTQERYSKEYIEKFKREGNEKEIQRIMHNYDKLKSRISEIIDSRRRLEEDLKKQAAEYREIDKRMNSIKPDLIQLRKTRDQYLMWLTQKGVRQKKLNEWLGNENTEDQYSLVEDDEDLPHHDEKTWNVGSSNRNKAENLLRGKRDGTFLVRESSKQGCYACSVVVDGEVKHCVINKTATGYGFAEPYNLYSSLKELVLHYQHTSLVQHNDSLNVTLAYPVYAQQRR
Where [6] appears, read: alone or in combination with forskolin.

These results are taken from patent US9993554B2 (CENTRO NACIONAL DE INVESTIGACIONES ONCOLOGICAS (CNIO), priority 2010, dated 2018).

“Also recorded” adds a separate entry of the source.

For orientation: Ki means a dissociation constant, usually derived from enzyme kinetics or from competition with a known ligand. A lower Ki goes with higher affinity. Broadly, the IC50 is the midpoint of a concentration-inhibition curve. A low value points to greater potency in that assay.

Chain of PI3K isoform p110δ (O00329 whole entry, canonical isoform): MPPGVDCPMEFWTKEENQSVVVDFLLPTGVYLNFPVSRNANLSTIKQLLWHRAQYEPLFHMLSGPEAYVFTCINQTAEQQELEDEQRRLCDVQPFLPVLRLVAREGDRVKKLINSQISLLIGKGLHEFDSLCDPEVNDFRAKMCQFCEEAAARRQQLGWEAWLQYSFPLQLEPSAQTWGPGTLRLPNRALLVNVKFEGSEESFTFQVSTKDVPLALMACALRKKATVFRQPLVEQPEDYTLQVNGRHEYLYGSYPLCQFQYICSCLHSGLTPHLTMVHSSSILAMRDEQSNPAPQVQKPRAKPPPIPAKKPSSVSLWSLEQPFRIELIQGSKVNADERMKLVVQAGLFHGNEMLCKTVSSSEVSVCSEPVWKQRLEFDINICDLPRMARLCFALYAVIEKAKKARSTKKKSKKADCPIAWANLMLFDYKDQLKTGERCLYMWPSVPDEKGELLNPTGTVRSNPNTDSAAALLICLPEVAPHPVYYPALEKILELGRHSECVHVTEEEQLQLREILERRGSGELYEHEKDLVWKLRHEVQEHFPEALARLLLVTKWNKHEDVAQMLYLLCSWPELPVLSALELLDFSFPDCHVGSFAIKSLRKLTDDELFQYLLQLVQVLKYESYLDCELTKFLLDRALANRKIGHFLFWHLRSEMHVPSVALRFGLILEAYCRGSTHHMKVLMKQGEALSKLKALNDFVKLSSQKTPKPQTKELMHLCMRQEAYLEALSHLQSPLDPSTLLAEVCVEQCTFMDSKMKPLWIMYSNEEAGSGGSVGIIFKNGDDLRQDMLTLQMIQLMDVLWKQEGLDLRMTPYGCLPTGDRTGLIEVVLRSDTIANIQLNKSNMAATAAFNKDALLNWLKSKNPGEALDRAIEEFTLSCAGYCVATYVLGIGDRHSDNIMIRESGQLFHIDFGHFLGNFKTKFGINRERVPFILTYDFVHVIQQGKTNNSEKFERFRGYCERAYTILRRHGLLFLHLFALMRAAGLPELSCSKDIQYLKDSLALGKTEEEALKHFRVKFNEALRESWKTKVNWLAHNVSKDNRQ
Chain of PI3K isoform p110δ (P27986 whole entry partner, canonical isoform): as the sequence (P27986 whole entry partner, canonical isoform) above

`CS(=O)(=O)N1CCN(Cc2cn3c(Cl)c(-c4cnc(N)nc4)nc(N4CCOCC4)c3n2)CC1` [Compound A]: in data set [1], the “fat mass (DXA)” value is listed as “loss of fat mass” and the “lean mass (DXA)” value is “not to a loss of lean mass”. The “body weight of non-obese mice” value in data set [2] is given as “no changes in body weight; also recorded: “lack” of weight loss activity”. This compound also returned a Ki on PI3K isoform p110δ of 0.0098 µM. Also, the “decrease of body weight” value in data set [3] (gavage once a day for 2 weeks) was “approx. 10%”. Further, in data set [3] (during treatment), the food intake entry was “did not change significantly”. Further, the “levels of phospho-Akt” value in data set [4] was “severe decrease”. In addition, in data set [4] (setting [6]), the Pgc1α expression entry is given as “upregulation” and the Ucp1 expression entry is “upregulation”. This compound also registered a half-inhibitory concentration (IC50) in data set [5] of under 1 µM. At PI3K isoform p1103, this compound came in with a Ki of over 0.1 µM.
